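Growth conditions: 96-well plates. Treatment: test compound, 48 hours, 5 concentrations. Analysis: linear interpolation between bracketing concentrations; unreached endpoints set to highest concentration. Here, GI50 denotes the concentration required for 50% inhibition of growth.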 Activity calls are given as the source filed them. No stated cut-off is given here; in the data, active = GI50 up to about 1.1 µM and inactive = higher.
What was measured:
Assay in all cases: DTP human tumour cell line panel, 48 h
MDA-MB-435 = tested on: MDA-MB-435
HCT-15 = tested on: HCT-15
KM12 = tested on: KM12
SF-539 = tested on: SF-539
SK-OV-3 = tested on: SK-OV-3
OVCAR-3 = tested on: OVCAR-3
T47D = tested on: T47D
PC-3 = tested on: PC-3
SNB-75 = tested on: SNB-75
HL-60 = tested on: HL-60
NCI/ADR-RES = tested on: NCI/ADR-RES
UO-31 = tested on: UO-31
HCT-116 = tested on: HCT-116
NCI-H23 = tested on: NCI-H23
CCRF-CEM = tested on: CCRF-CEM
HT-29 = tested on: HT-29
BT-549 = tested on: BT-549
Malme-3M = tested on: Malme-3M
SR = tested on: SR
MDA-N = tested on: MDA-N

SMILES | GI50 (MDA-MB-435) | GI50 (HCT-15) [µM] | GI50 (KM12) | GI50 (SF-539) | GI50 (SK-OV-3) | GI50 (OVCAR-3) | GI50 (T47D) | GI50 (PC-3) | GI50 (SNB-75) | GI50 (HL-60) | GI50 (NCI/ADR-RES) | GI50 (UO-31) | GI50 (HCT-116) | GI50 (NCI-H23) | GI50 (CCRF-CEM) | GI50 (HT-29) | GI50 (BT-549) | GI50 (Malme-3M) | GI50 (SR) | GI50 (MDA-N)
CSc1nc(O)c(C#N)c(-c2ccccc2)n1 | > 100 µM (inactive) | > 100 | > 100 µM (inactive) | > 100 µM (inactive) | > 100 µM (inactive) | > 100 µM (inactive) | 64.9 µM (inactive) | > 100 µM (inactive) | > 100 µM (inactive) | > 100 µM (inactive) | > 100 µM (inactive) | 78.3 µM (inactive) | > 100 µM (inactive) | > 100 µM (inactive) | > 100 µM (inactive) | > 100 µM (inactive) | > 100 µM (inactive) | – | – | –
CN(NC(=O)/C(=C/c1ccc(O)cc1)NC(=O)c1ccccc1)c1ccnc2cc(Cl)ccc12 | 17.3 µM (inactive) | – | 17.8 µM (inactive) | 23 µM (inactive) | 19 µM (inactive) | 16.7 µM (inactive) | 20.5 µM (inactive) | 16.6 µM (inactive) | 8.85 µM (inactive) | 2.79 µM (inactive) | 14.5 µM (inactive) | 5.85 µM (inactive) | 18.2 µM (inactive) | > 10 µM (inactive) | 17.3 µM (inactive) | 6.4 µM (inactive) | – | 20 µM (inactive) | 3.08 µM (inactive) | 17.4 µM (inactive)
C=C1CC(c2ccc(OCCCN3C(=O)c4ccccc4C3=O)cc2)OC1=O (stereo unspecified) | 2.52 µM (inactive) | 2.36 | 3.83 µM (inactive) | 0.123 µM (active) | 14.4 µM (inactive) | 1.86 µM (inactive) | 2.92 µM (inactive) | 2.92 µM (inactive) | 10.6 µM (inactive) | 1.96 µM (inactive) | 8.09 µM (inactive) | 3.74 µM (inactive) | 1.8 µM (inactive) | 2.35 µM (inactive) | 1.64 µM (inactive) | 2.53 µM (inactive) | – | 2.54 µM (inactive) | 3.05 µM (inactive) | 2.79 µM (inactive)
CCOC(=O)C(=CNc1ccc(S(N)(=O)=O)cc1)C(=O)OCC | > 100 µM (inactive) | > 100 | – | > 100 µM (inactive) | > 100 µM (inactive) | > 100 µM (inactive) | > 100 µM (inactive) | > 100 µM (inactive) | > 100 µM (inactive) | > 100 µM (inactive) | > 100 µM (inactive) | > 100 µM (inactive) | > 100 µM (inactive) | > 100 µM (inactive) | > 100 µM (inactive) | > 100 µM (inactive) | – | > 100 µM (inactive) | > 100 µM (inactive) | > 100 µM (inactive)
CCO/C=N\C1=C(C#N)SC2=N/C(=C\c3ccco3)C(=O)N21 | > 100 µM (inactive) | > 100 | > 100 µM (inactive) | > 100 µM (inactive) | > 100 µM (inactive) | > 100 µM (inactive) | > 100 µM (inactive) | > 100 µM (inactive) | > 100 µM (inactive) | > 100 µM (inactive) | > 100 µM (inactive) | > 100 µM (inactive) | > 100 µM (inactive) | > 100 µM (inactive) | > 100 µM (inactive) | > 100 µM (inactive) | – | > 100 µM (inactive) | > 100 µM (inactive) | > 100 µM (inactive)
COc1ccc(/N=C2\C(=O)Nc3ccc(Br)cc32)cc1 | 13.2 µM (inactive) | 14.3 | 10.7 µM (inactive) | 16.5 µM (inactive) | 24.3 µM (inactive) | 21.7 µM (inactive) | 18.3 µM (inactive) | 25.3 µM (inactive) | – | 15.6 µM (inactive) | 18.7 µM (inactive) | 9.82 µM (inactive) | 14.2 µM (inactive) | 18.2 µM (inactive) | 13.4 µM (inactive) | 23.4 µM (inactive) | – | 19.8 µM (inactive) | 3.58 µM (inactive) | 13.9 µM (inactive)
CC[S+]([O-])C(=O)N(O)c1ccc(Cl)cc1 (stereo unspecified) | 15 µM (inactive) | 23.8 | 15.6 µM (inactive) | 24.9 µM (inactive) | > 100 µM (inactive) | 31.6 µM (inactive) | 31.3 µM (inactive) | 37.4 µM (inactive) | 32.1 µM (inactive) | – | 24.9 µM (inactive) | 14.5 µM (inactive) | 24.4 µM (inactive) | – | 12.6 µM (inactive) | – | – | – | – | 20 µM (inactive)
c1ccc(C[n+]2ccc3c(c2)CCCC3)cc1 | > 100 µM (inactive) | > 100 | 62.2 µM (inactive) | > 100 µM (inactive) | > 100 µM (inactive) | 36.8 µM (inactive) | 45.3 µM (inactive) | 78 µM (inactive) | 54.1 µM (inactive) | 29.5 µM (inactive) | > 100 µM (inactive) | > 100 µM (inactive) | 93.1 µM (inactive) | 39.4 µM (inactive) | > 100 µM (inactive) | 50.9 µM (inactive) | – | 21.4 µM (inactive) | > 100 µM (inactive) | > 100 µM (inactive)
Cc1nn(CNc2ccc(F)c(Cl)c2)c(=S)n1/N=C/c1ccc(-c2ccc(Cl)cc2Cl)o1 | 17.6 µM (inactive) | 16.9 | 20.5 µM (inactive) | 16.8 µM (inactive) | 16.9 µM (inactive) | 17.3 µM (inactive) | 18.5 µM (inactive) | 16.4 µM (inactive) | – | 1.44 µM (inactive) | 19.3 µM (inactive) | 16.7 µM (inactive) | 15.7 µM (inactive) | 20.1 µM (inactive) | 4.16 µM (inactive) | 19.6 µM (inactive) | – | – | 1.4 µM (inactive) | 17.7 µM (inactive)
NS(=O)(=O)c1nnc(NS(=O)(=O)C(F)(F)F)s1 | > 100 µM (inactive) | > 100 | > 100 µM (inactive) | > 100 µM (inactive) | > 100 µM (inactive) | > 100 µM (inactive) | – | > 100 µM (inactive) | > 100 µM (inactive) | > 100 µM (inactive) | > 100 µM (inactive) | > 100 µM (inactive) | > 100 µM (inactive) | 77.3 µM (inactive) | – | > 100 µM (inactive) | > 100 µM (inactive) | > 100 µM (inactive) | 46.7 µM (inactive) | –
COc1ccc(Oc2cccc(/C=C3/C(=O)Nc4ccccc43)c2)cc1 | 3.58 µM (inactive) | 10.2 | 5.02 µM (inactive) | 18.9 µM (inactive) | 13.8 µM (inactive) | 7.89 µM (inactive) | 1.77 µM (inactive) | 5.98 µM (inactive) | 15 µM (inactive) | 3.05 µM (inactive) | 4.91 µM (inactive) | 6.82 µM (inactive) | 3.6 µM (inactive) | 3.23 µM (inactive) | 4.21 µM (inactive) | 3.73 µM (inactive) | 14.8 µM (inactive) | 11.2 µM (inactive) | – | –
CC1(C)CC[C@]2(C)CC=C3[C@]4(C)CC[C@H]5C(C)(C)C(=O)CC[C@]5(C)[C@H]4CC[C@@]3(C)[C@H]2C1 | > 100 µM (inactive) | > 100 | > 100 µM (inactive) | > 100 µM (inactive) | > 100 µM (inactive) | > 100 µM (inactive) | > 100 µM (inactive) | > 100 µM (inactive) | – | – | > 100 µM (inactive) | > 100 µM (inactive) | > 100 µM (inactive) | > 100 µM (inactive) | > 100 µM (inactive) | > 100 µM (inactive) | – | > 100 µM (inactive) | > 100 µM (inactive) | > 100 µM (inactive)

Reference: ChEMBL document CHEMBL1201862, “PubChem BioAssay data set” (2004)
